Active and inactive are the calls of the source. No cut-off for these calls is given here.
Columns and labels:
[1] = test system: HT-29; test: Anti-necroptotic activity in TSZ-induced human HT-29 cells assessed as increase in cell viability preincubated with Z-VAD-FMK and SM164 for 30 mins followed by TNFalpha stimulation for 12 hrs and measured after compound addition by CellTiter-Lumi luminescent cell viability assay; format: functional, cell-based
[2] = test system: L929; test: Anti-necroptotic activity in TZ-induced mouse L929 cells assessed as increase in cell viability preincubated with Z-VAD-FMK followed by mTNFalpha stimulation for 4 hrs and measured after compound addition by CellTiter-Lumi luminescent cell viability assay; format: functional, cell-based
[3] = test system: HT-29; test: Effect on RIPK3 protein level in human HT-29 cells at 10 microg/ml incubated for 9 hrs by Western blot analysis; format: functional, cell-based; settings: dose 10.0 µg/ml
[4] = test system: HT-29; test: Effect on MLKL protein level in human HT-29 cells at 10 microg/ml incubated for 9 hrs by Western blot analysis; format: functional, cell-based; settings: dose 10.0 µg/ml
[5] = test system: HT-29; test: Effect on RIPK1 protein level in human HT-29 cells at 10 microg/ml incubated for 9 hrs by Western blot analysis; format: functional, cell-based; settings: dose 10.0 µg/ml
[6] = molecular target: Heat shock protein HSP90 (Homo sapiens) (UniProt P07900+P08238); test: Inhibition of HSP90 in TSZ-induced human HT-29 cells assessed as reduction in EGFR protein level at 10 uM preincubated with compound followed by Z-VAD-FMK, SM164 and TNFalpha stimulation and measured after 6 hrs by Western blot analysis; format: cell-based
[7] = molecular target: T1, Mixed lineage kinase domain-like protein (Homo sapiens) (UniProt Q8NB16); test: Inhibition of MLKL phosphorylation at S358 residue in TSZ-induced human HT-29 cells at 10 uM preincubated with compound followed by Z-VAD-FMK, SM164 and TNFalpha stimulation and measured after 6 hrs by Western blot analysis; format: cell-based
T1 sequence (whole entry): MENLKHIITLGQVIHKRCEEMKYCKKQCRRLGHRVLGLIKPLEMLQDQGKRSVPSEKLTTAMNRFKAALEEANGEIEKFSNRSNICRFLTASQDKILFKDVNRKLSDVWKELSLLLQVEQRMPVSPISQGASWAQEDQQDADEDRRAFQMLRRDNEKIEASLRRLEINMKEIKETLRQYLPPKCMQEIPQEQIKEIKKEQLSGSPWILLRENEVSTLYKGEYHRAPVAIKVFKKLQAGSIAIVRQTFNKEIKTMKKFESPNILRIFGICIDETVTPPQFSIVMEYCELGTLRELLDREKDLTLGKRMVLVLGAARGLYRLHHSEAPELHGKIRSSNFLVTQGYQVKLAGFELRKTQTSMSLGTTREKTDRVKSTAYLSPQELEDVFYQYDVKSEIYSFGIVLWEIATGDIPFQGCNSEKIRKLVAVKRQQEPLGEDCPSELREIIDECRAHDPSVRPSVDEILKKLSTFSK

[8] = test system: L929; test: Anti-necroptotic activity in TZ-induced mouse L929 cells assessed as protection against cell death at 10 uM measured within 5 hrs by Live-cell super-resolution panoramic microscopic analysis; format: functional, cell-based
[9] = molecular target: Receptor-interacting serine/threonine-protein kinase 3 (Homo sapiens) (UniProt Q9Y572); test: Inhibition of RIPK3 phosphorylation at S227 residue in TSZ-induced human HT-29 cells at 10 uM preincubated with compound followed by Z-VAD-FMK, SM164 and TNFalpha stimulation and measured after 6 hrs by Western blot analysis; format: cell-based
Sequence of Receptor-interacting serine/threonine-protein kinase 3 (Homo sapiens) (Q9Y572 whole entry, looked up): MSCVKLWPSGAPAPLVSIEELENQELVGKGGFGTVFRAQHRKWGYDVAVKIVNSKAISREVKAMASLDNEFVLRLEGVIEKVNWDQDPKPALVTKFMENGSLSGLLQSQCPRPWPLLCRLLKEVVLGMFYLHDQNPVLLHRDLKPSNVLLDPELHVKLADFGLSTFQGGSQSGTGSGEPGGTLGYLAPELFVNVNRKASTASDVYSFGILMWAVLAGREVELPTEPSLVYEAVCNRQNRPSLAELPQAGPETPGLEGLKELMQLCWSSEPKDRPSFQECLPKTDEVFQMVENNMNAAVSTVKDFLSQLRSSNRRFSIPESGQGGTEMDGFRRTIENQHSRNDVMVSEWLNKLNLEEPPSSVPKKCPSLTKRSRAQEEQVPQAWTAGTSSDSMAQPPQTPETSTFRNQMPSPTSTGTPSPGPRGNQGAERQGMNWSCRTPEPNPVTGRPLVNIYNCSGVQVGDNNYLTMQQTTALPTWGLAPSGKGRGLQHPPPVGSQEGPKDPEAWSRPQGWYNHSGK

[10] = molecular target: T2, Receptor-interacting serine/threonine-protein kinase 1 (Homo sapiens) (UniProt Q13546); test: Inhibition of RIPK1 phosphorylation at S166 residue in TSZ-induced human HT-29 cells at 10 uM preincubated with compound followed by Z-VAD-FMK, SM164 and TNFalpha stimulation and measured after 6 hrs by Western blot analysis; format: cell-based
T2 sequence (whole entry): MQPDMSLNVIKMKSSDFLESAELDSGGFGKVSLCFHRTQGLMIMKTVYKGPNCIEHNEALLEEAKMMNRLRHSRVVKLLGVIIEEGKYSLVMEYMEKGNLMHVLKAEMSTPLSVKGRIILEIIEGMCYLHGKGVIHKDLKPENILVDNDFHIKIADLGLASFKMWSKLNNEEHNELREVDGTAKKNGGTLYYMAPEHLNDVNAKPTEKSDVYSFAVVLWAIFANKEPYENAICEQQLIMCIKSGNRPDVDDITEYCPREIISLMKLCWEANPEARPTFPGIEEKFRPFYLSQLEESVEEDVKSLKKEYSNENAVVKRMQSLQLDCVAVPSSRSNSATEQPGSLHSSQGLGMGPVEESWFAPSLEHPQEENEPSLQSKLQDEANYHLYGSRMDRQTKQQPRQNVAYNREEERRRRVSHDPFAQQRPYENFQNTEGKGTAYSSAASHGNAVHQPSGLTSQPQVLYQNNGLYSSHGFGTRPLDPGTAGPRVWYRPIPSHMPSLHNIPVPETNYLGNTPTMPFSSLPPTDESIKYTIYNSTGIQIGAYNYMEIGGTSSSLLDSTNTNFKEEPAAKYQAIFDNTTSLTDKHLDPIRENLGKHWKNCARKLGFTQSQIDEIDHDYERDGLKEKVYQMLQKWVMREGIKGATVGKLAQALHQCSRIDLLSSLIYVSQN

[11] = test system: RAW264.7; test: Anti-necroptotic activity in LZ-induced mouse RAW264.7 cells assessed as increase in cell viability preincubated with compound followed by LPS and Z-VAD-FMK stimulation and measured after 16 hrs by CellTiter-Lumi luminescent cell viability assay; format: functional, cell-based

Compound | EC50 [1] | EC50 [2] | other results
CC1(C)CC[C@]2(C(=O)Nc3ccc4occc4c3)CC[C@]3(C)[C@H](C(=O)C=C4[C@@]5(C)C=C(C#N)C(=O)C(C)(C)[C@@H]5CC[C@]43C)[C@@H]2C1 | 1.32 µM | > 10 µM | 
CC1(C)CC[C@]2(C(=O)O)CC[C@]3(C)C(=CC[C@@H]4[C@@]5(C)CC[C@H](O)C(C)(C)[C@@H]5CC[C@]43C)[C@@H]2C1 [OLEANOLIC_ACID] | > 10 µM | > 10 µM | 
CC1(C)CC[C@]2(C(=O)Nc3ccc4[nH]ccc4c3)CC[C@]3(C)[C@H](C(=O)C=C4[C@@]5(C)C=C(C#N)C(=O)C(C)(C)[C@@H]5CC[C@]43C)[C@@H]2C1 | 4.08 µM | > 10 µM | 
CC1(C)CC[C@]2(C(=O)N3CCc4ccccc43)CC[C@]3(C)[C@H](C(=O)C=C4[C@@]5(C)C=C(C#N)C(=O)C(C)(C)[C@@H]5CC[C@]43C)[C@@H]2C1 | > 10 µM | > 10 µM | 
CC1(C)CC[C@]2(C(=O)N3Cc4ccccc4C3)CC[C@]3(C)[C@H](C(=O)C=C4[C@@]5(C)C=C(C#N)C(=O)C(C)(C)[C@@H]5CC[C@]43C)[C@@H]2C1 | 1.65 µM | > 10 µM | 
Cn1c(NC(=O)[C@]23CCC(C)(C)C[C@H]2[C@H]2C(=O)C=C4[C@@]5(C)C=C(C#N)C(=O)C(C)(C)[C@@H]5CC[C@@]4(C)[C@]2(C)CC3)nc2ccccc21 | 3.97 µM | > 10 µM | 
CC1(C)CC[C@]2(C(=O)n3nnc4ccccc43)CC[C@]3(C)[C@H](C(=O)C=C4[C@@]5(C)C=C(C#N)C(=O)C(C)(C)[C@@H]5CC[C@]43C)[C@@H]2C1 | 9.98 µM | > 10 µM | 
CC1(C)CC[C@]2(C(=O)Nc3ccc4c(c3)OCO4)CC[C@]3(C)[C@H](C(=O)C=C4[C@@]5(C)C=C(C#N)C(=O)C(C)(C)[C@@H]5CC[C@]43C)[C@@H]2C1 | 0.89 µM | > 10 µM | 
CC1(C)CC[C@]2(C(=O)Nc3ccc4sccc4c3)CC[C@]3(C)[C@H](C(=O)C=C4[C@@]5(C)C=C(C#N)C(=O)C(C)(C)[C@@H]5CC[C@]43C)[C@@H]2C1 | 4.85 µM | > 10 µM | 
C[C@@H]1C[C@@H]([C@H](O)CC2CC(=O)NC(=O)C2)C(=O)[C@@H](C)C1 |  |  | Activity [3]: inactive; Activity [4]: inactive; Activity [5]: inactive
CC1(C)CC[C@]2(C(=O)O)CC[C@]3(C)[C@H](C(=O)C=C4[C@@]5(C)C=C(C#N)C(=O)C(C)(C)[C@@H]5CC[C@]43C)[C@@H]2C1 [BARDOXOLONE] | 2.52 µM | > 10 µM | inhibition [6]: Active; inhibition [7]: inactive; Activity [8]: inactive; inhibition [9]: inactive; inhibition [10]: inactive
CC1(C)CC[C@]2(C(=O)Nc3ccc4ncsc4c3)CC[C@]3(C)[C@H](C(=O)C=C4[C@@]5(C)C=C(C#N)C(=O)C(C)(C)[C@@H]5CC[C@]43C)[C@@H]2C1 | 3.56 µM | > 10 µM | 
COC(=O)[C@]12CCC(C)(C)C[C@H]1[C@H]1C(=O)C=C3[C@@]4(C)C5NC5C(=O)C(C)(C)[C@@H]4CC[C@@]3(C)[C@]1(C)CC2 (some centres not stated) | > 10 µM | > 10 µM | 
CC1(C)CC[C@]2(C(=O)O)CC[C@]3(C)[C@H](C(=O)C=C4[C@@]5(C)C=C(C(N)=O)C(=O)C(C)(C)[C@@H]5CC[C@]43C)[C@@H]2C1 | 2.2 µM | > 10 µM | 
CC1(C)CC[C@]2(C(=O)Nc3cnc4ccccc4n3)CC[C@]3(C)[C@H](C(=O)C=C4[C@@]5(C)C=C(C#N)C(=O)C(C)(C)[C@@H]5CC[C@]43C)[C@@H]2C1 | 2.39 µM | > 10 µM | 
CC1(C)CC[C@]2(C(=O)Nc3nc4ccccc4s3)CC[C@]3(C)[C@H](C(=O)C=C4[C@@]5(C)C=C(C#N)C(=O)C(C)(C)[C@@H]5CC[C@]43C)[C@@H]2C1 | 3.8 µM | > 10 µM | 
CC1(C)CC[C@]2(C(=O)O)[C@H](O)C[C@]3(C)C(=CC[C@@H]4[C@@]5(C)CC[C@H](O)C(C)(C)[C@@H]5CC[C@]43C)[C@@H]2C1 | > 10 µM | > 10 µM | 
COC(=O)[C@]12CCC(C)(C)C[C@H]1[C@H]1C(=O)C=C3[C@@]4(C)C5C(C(=O)C(C)(C)[C@@H]4CC[C@@]3(C)[C@]1(C)CC2)N5CC#N (some centres not stated) | > 10 µM | > 10 µM | 
CC1(C)CC[C@]2(C(=O)Nc3nsc4ccccc34)CC[C@]3(C)[C@H](C(=O)C=C4[C@@]5(C)C=C(C#N)C(=O)C(C)(C)[C@@H]5CC[C@]43C)[C@@H]2C1 | 3.96 µM | > 10 µM | 
CC1(C)CC[C@]2(C(=O)n3cnc4ccccc43)CC[C@]3(C)[C@H](C(=O)C=C4[C@@]5(C)C=C(C#N)C(=O)C(C)(C)[C@@H]5CC[C@]43C)[C@@H]2C1 | 2.35 µM | > 10 µM | 
CC1(C)CC[C@]2(C(=O)N3CCC(c4ccccc4)C3)CC[C@]3(C)[C@H](C(=O)C=C4[C@@]5(C)C=C(C#N)C(=O)C(C)(C)[C@@H]5CC[C@]43C)[C@@H]2C1 (some centres not stated) | 3.81 µM | > 10 µM | 
CC1(C)CC[C@]2(C(=O)NC3(c4ccccc4)CC3)CC[C@]3(C)[C@H](C(=O)C=C4[C@@]5(C)C=C(C#N)C(=O)C(C)(C)[C@@H]5CC[C@]43C)[C@@H]2C1 | 2.09 µM | 4.8 µM | Activity [11]: Dose-dependent-effect
CC1(C)CC[C@]2(C(=O)Nc3ccc4ncoc4c3)CC[C@]3(C)[C@H](C(=O)C=C4[C@@]5(C)C=C(C#N)C(=O)C(C)(C)[C@@H]5CC[C@]43C)[C@@H]2C1 | 2 µM | 2.84 µM | Activity [11]: Dose-dependent-effect
CC1(C)CC[C@]2(C(=O)Nc3ccc4scnc4c3)CC[C@]3(C)[C@H](C(=O)C=C4[C@@]5(C)C=C(C#N)C(=O)C(C)(C)[C@@H]5CC[C@]43C)[C@@H]2C1 | 1.38 µM | 4.01 µM | Activity [11]: Dose-dependent-effect
CC1(C)CC[C@]2(C(=O)Nc3ccc4ccccc4c3)CC[C@]3(C)[C@H](C(=O)C=C4[C@@]5(C)C=C(C#N)C(=O)C(C)(C)[C@@H]5CC[C@]43C)[C@@H]2C1 | 9.56 µM | > 10 µM | 
CC1(C)CC[C@]2(C(=O)n3ncc4ccccc43)CC[C@]3(C)[C@H](C(=O)C=C4[C@@]5(C)C=C(C#N)C(=O)C(C)(C)[C@@H]5CC[C@]43C)[C@@H]2C1 | > 10 µM | > 10 µM | 
CC1(C)CC[C@]2(C(=O)N3CCC(c4ccccc4)CC3)CC[C@]3(C)[C@H](C(=O)C=C4[C@@]5(C)C=C(C#N)C(=O)C(C)(C)[C@@H]5CC[C@]43C)[C@@H]2C1 | 5.8 µM | > 10 µM | 
CC1(C)CC[C@]2(C(=O)Nc3ccc4oncc4c3)CC[C@]3(C)[C@H](C(=O)C=C4[C@@]5(C)C=C(C#N)C(=O)C(C)(C)[C@@H]5CC[C@]43C)[C@@H]2C1 | 3.28 µM | > 10 µM | 
CC1(C)CC[C@]2(C(=O)Nc3ccc4sncc4c3)CC[C@]3(C)[C@H](C(=O)C=C4[C@@]5(C)C=C(C#N)C(=O)C(C)(C)[C@@H]5CC[C@]43C)[C@@H]2C1 | 2.35 µM | > 10 µM | 
